The source made the active and inactive calls. The calls are words filed in the database; no cut-off is given here.

Type in all cases: functional, organism-based
Experiment [1] deals with Microcystis aeruginosa. As to the kind of experiment: Antialgal activity against Microcystis aeruginosa NIES 44 after 24 hrs by fluorophotometric method.
The subject of experiment [2] is Dolichospermum flos-aquae. As to the kind of experiment: Antialgal activity against Anabaena flos-aquae NIES 73 after 48 hrs by fluorophotometric method.
Experiment [3] deals with Microcystis aeruginosa. As to the kind of experiment: Antialgal activity against Microcystis aeruginosa NIES 44 up to 500 uM after 24 hrs by fluorophotometric method.

The IC50 is the concentration at which inhibition is half-maximal. Lower therefore signals inhibition by little substance. For `C[C@@H]1O[C@@H](Oc2c(-c3ccc(O)c(O)c3)oc3cc(O)cc(O)c3c2=O)[C@H](O)[C@H](O)[C@H]1O` [QUERCITRIN], the IC50 came out at 9 µM in the experiment with Microcystis aeruginosa [1] and 45 µM in experiment [2]. Regarding `OC[C@H]1OC(O)[C@H](O)[C@@H](O)[C@@H]1O` (stereo partly drawn), the outcome in the experiment on Microcystis aeruginosa [3] was inactive.

In the case of `O=C(O)c1cc(O)c(O)c(O)c1` [GALLIC ACID], the IC50 in the experiment on Microcystis aeruginosa [1] is 19 µM; in experiment [2], 33 µM. On the same counts, the results for `O=C(O[C@@H]1O[C@@H]2COC(=O)c3cc(O)c(O)c(O)c3-c3c(cc(O)c(O)c3O)C(=O)O[C@H]2[C@H](OC(=O)c2cc(O)c(O)c(O)c2)[C@H]1OC(=O)c1cc(O)c(O)c(O)c1)c1cc(O)c(O)c(O)c1` [EUGENIIN] are 1.6 µM and 2.8 µM.

As to `O=C(O[C@@H]1[C@@H](OC(=O)c2cc(O)c(O)c(O)c2)[C@H](O)O[C@@H]2COC(=O)c3cc(O)c(O)c(O)c3-c3c(cc(O)c(O)c3O)C(=O)O[C@@H]12)c1cc(O)c(O)c(O)c1`, the half-inhibitory concentration (IC50) in the experiment with Microcystis aeruginosa [1] is 3.7 µM; in experiment [2] it was 9.5 µM. On the same counts, the results for `O=c1c(O[C@@H]2O[C@@H](CO)[C@H](O)[C@H]2O)c(-c2ccc(O)c(O)c2)oc2cc(O)cc(O)c12` [AVICULARIN] are 180 µM and 28 µM.

In the case of `O=c1c(O)c(-c2ccc(O)c(O)c2)oc2cc(O)cc(O)c12` [QUERCETIN], the half-maximal inhibitory concentration (IC50) in the experiment with Microcystis aeruginosa [1] turned out to be 12 µM; in experiment [2], 25 µM.

Values taken from ChEMBL document CHEMBL1147318, “Inhibitory Substances from Myriophyllum brasiliense on Growth of Blue-Green Algae” (J Nat Prod, 1989).
